Reference: ChEMBL document CHEMBL1122879, “Racemic and optically active 1,3,3-trimethyl-4-phenyl-4-(propionyloxy)piperidine” (1985)

Assays:
Assay type in all cases: functional
Rattus norvegicus [1] = organism: Rattus norvegicus; assay: Effective dose for antinociceptive activity in rats
Mus musculus = assay: Effective dose for antinociceptive activity in mice hot plate test s.c.; settings: sc
Rattus norvegicus [2] = assay: Effective dose for antinociceptive activity in rat tail-withdrawal test i.v.

| SMILES | ED50 (Rattus norvegicus [1]) | ED50 (Mus musculus) | ED50 (Rattus norvegicus [2]) |
| --- | --- | --- | --- |
| CCC(=O)O[C@@]1(c2ccccc2)CCN(C)CC1(C)C | 0.5 mg/kg | – | – |
| CCC(=O)OC1(c2ccccc2)CCN(C)CC1(C)C (racemic) | – | 0.61 mg/kg | 0.63 mg/kg |
| CCOC(=O)C1(c2ccccc2)CCN(C)CC1 [MEPERIDINE] | – | 4.1 mg/kg | 6.15 mg/kg |
